According to patent US8618163B2, “Derivatives of cycloalkyl- and cycloalkenyl-1,2-dicarboxylic acid compounds having formyl peptide receptor like-1 (FPRL-1) agonist or antagonist activity” (Allergan, Inc., priority 2010, dated 2013):
Like-named read-outs stand apart in the source and are kept apart here.

Assays:
[1] = target: T1, FPRL1 (Homo sapiens, UniProt P25090); assay: compound-induced calcium activity on FLIPR Tetra in CHO-Gal6 cells stably expressing FPRL1; assay type: cell-based; settings: calcium, FLIPR Tetra; for EC50: tested 0.61 to 10,000 nM, read-out: FPRL1 EC50; for FPRL1 (rel. eff.): relative efficacy
T1 construct: expressed in transfected cells; host or cells: CHO-Gal6 (CHO cells with G alpha 16)
T1 sequence (P25090 1-351): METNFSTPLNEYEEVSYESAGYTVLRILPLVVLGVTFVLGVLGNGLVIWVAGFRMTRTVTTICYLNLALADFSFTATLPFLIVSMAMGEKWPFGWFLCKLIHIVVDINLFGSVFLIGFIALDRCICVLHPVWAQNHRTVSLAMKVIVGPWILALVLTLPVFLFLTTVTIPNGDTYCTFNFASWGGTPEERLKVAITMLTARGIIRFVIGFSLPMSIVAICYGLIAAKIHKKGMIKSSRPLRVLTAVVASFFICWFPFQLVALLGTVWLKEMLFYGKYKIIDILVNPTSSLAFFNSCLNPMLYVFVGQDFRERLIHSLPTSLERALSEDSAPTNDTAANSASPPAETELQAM
Protocol: (§1) CHO-Gal6 cells stably expressing FPRL1 were cultured in (F12, 10% FBS, 1% PSA, 400 μg/ml geneticin and 50 μg/ml hygromycin) and HEK-Gqi5 cells stable expressing FPR1 were cultured in (DMEM high glucose, 10% FBS, 1% PSA, 400 μg/ml geneticin and 50 μg/ml hygromycin). In general, the day before the experiment, 18,000 cells/well were plated in a 384-well clear bottom poly-d-lysine coated plate. The following day the screening compound-induced calcium activity was assayed on the FLIPR^Tetra. The drug plates were prepared in 384-well microplates using the EP3 and the MultiPROBE robotic liquid handling systems. Compounds were tested at concentrations ranging from 0.61 to 10,000 nM. Results are expressed as EC50 (nM) and efficacy values.

[2] = target: T2, FPR1 (Homo sapiens, UniProt P21462); assay: compound-induced calcium activity on FLIPR Tetra in HEK-Gqi5 cells stable expressing FPR1; assay type: cell-based; design: FPR1 (rel. eff.): scale not given here; settings: for FPR1 (rel. eff.): relative efficacy
T2 construct: expressed in transfected cells; host or cells: HEK-Gqi5 (HEK cells with chimeric G protein Gqi5)
T2 sequence (P21462 1-350): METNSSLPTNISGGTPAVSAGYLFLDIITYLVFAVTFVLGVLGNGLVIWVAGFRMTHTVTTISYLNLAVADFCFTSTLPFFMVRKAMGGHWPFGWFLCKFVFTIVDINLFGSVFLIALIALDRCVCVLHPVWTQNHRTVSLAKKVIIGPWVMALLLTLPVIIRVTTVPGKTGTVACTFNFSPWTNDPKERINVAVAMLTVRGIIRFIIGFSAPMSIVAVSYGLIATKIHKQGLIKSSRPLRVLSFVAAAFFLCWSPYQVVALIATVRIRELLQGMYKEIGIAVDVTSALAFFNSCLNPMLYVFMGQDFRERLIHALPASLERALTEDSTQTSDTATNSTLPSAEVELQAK
Protocol: as §1

[3] = class symbol NA, read-out: FPR1 EC50 (NA = Not Active)
[4] = calcium, FLIPR Tetra, tested 0.61 to 10,000 nM, read-out: FPR1 EC50

Molecule	EC50 [1] [nM]	FPRL1 (rel. eff.) [1]	EC50 [2, 3] [nM]	EC50 [2, 4] [nM]	FPR1 (rel. eff.) ([2]; calcium, FLIPR Tetra)
O=C(O)C1C(C(=O)Nc2cccc(C(F)(F)F)c2)C2C=CC1C21CC1 (racemic) [Compound 27, (+/−)-(1S,4R,5S,6R)-6-β3-(Trifluoromethyl)phenyl)carbamoyl)spiro[bicyclo-[2.2.1]hept[2]ene-7,1′-cyclopropane]-5-carboxylic Acid]	2770	0.72	> 10000		
CC1(C)[C@@H]2CC[C@H]1[C@@H](C(=O)Nc1ccc(I)cc1)[C@H]2C(N)=O (racemic) [Compound 55, (+/−)-(1S,2R,3S,4R)—N2-(4-Iodophenyl)-7,7-dimethylbicyclo[2.2.1]heptane-2,3-dicarboxamide]		0.81	> 10000		
O=C(O)C1C(C(=O)Nc2ccc(OC(F)(F)F)cc2)C2C=CC1C21CC1 (racemic) [Compound 34, (+/−)-(1S,4R,5S,6R)-6-β4-(Trifluoromethoxy)phenyl)carbamoyl)spiro[bicyclo-[2.2.1]hept[2]ene-7,1′-cyclopropane]-5-carboxylic Acid]	585	0.96	> 10000		
N#Cc1ccc(-c2ccc(NC(=O)C3C(C(=O)O)C4C=CC3C43CC3)cc2)cc1 (racemic) [Compound 30, (+/−)-(1S,4R,5S,6R)-6-((4′-Cyano-[1,1′-biphenyl]-4-yl)carbamoyl)spiro[bicyclo-[2.2.1]hept[2]ene-7,1′-cyclopropane]-5-carboxylic Acid]	2880	0.97			
(+/−)-(1R,2S,3R,4S)-3-((4-(Methylsulfonyl)phenyl)carbamoyl)spiro[bicyclo[2.2.1]-heptane-7,1′-cyclopropane]-2-carboxylic Acid [Compound 71]			> 10000		
COC(=O)C1C(C(=O)Nc2ccc(Br)cc2)C2CCC1C21CC1 (racemic) [Compound 83, (+/−)-(1S,4S,5R,6S)-Methyl 2-((4-bromophenyl)carbamoyl)spiro[bicyclo[2.2.1]heptane-7,1′-cyclopropane]-3-carboxylate]	1680	0.68			
CC1(C)[C@@H]2CC[C@H]1[C@@H](C(=O)Nc1ccc(I)cc1)[C@H]2C(=O)O (racemic) [Compound 12, (+/−)-(1R,2S,3R,4S)-3-(4-Iodophenylcarbamoyl)-7,7-dimethylbicyclo[2.2.1]heptane-2-carboxylic Acid]				343	68
COc1ccccc1NC(=O)[C@H]1[C@@H](C(=O)O)[C@H]2CC[C@@H]1C21CC1 (racemic) [Compound 39, (+/−)-(1R,2S,3R,4S)-3-((2-Methoxyphenyl)carbamoyl)spiro[bicyclo[2.2.1]heptane-7,1′-cyclopropane]-2-carboxylic Acid]	> 3000	1.2			
O=C1[C@@H]2[C@H](C(=O)N1c1ccc(Br)cc1)[C@@H]1CC[C@H]2C12CC2 [Compound 90, (3aR,4S,7R,7aS)-2-(4-Bromophenyl)-hexahydro-1H-spiro[4,7-methanoisoindole-8,1′-cyclopropane]-1,3(2H)-dione]	6560	0.38			
CN(C)C(=O)C1C(C(=O)Nc2ccc(Br)cc2)C2C=CC1C21CC1 (racemic) [Compound 76, (+/−)-(1S,4S,5R,6S)—N^5-(4-Bromophenyl)-N^6,N^6-dimethylspiro[bicyclo[2.2.1]hept[2]ene]-7,1′-cyclopropane]-5,6-dicarboxamide]	3720	0.5			
COc1ccccc1NC(=O)C1C(C(=O)O)C2C=CC1C21CC1 (racemic) [Compound 29, (+/−)-(1S,4R,5S,6R)-6-((2-Methoxyphenyl)carbamoyl)spiro[bicyclo[2.2.1]hept[2]ene-7,1′-cyclopropane]-5-carboxylic Acid]	3170	1.1			
NC(=O)C1C(C(=O)Nc2ccc(Br)cc2)C2C=CC1C21CC1 (racemic) [Compound 47, (+/−)-(1R,4S,5R,6S)—N-5-(4-Bromophenyl)spiro[bicyclo[2.2.1]hept[2]ene-7,1′-cyclopropane]-5,6-dicarboxamide]			> 10000		
CC(C)=C1C2C=CC1C(C(=O)Nc1ccc(I)cc1)C2C(=O)O (racemic) [Compound 22, (+/−)-(1S,4R,5S,6R)-6-(4-Iodophenylcarbamoyl)[bicyclo[2.2.1]hept[2]ene-7-propan-2-ylidene]-5-carboxylic Acid]				8030	62
CC1(C)[C@@H]2CC[C@H]1[C@@H](C(=O)Nc1ccc(Br)cc1)[C@H]2C(N)=O (racemic) [Compound 54, (+/−)-(1S,2R,3S,4R)—N2-(4-Bromophenyl)-7,7-dimethylbicyclo[2.2.1]heptane-2,3-dicarboxamide]			> 10000		
CCOC(=O)[C@@H]1[C@H](C(=O)Nc2ccc(Br)cc2)[C@@H]2CC[C@H]1C21CC1 (racemic) [Compound 84, (+/−)-(1S,2R,3S,4R)-Ethyl 2-((4-bromophenyl)carbamoyl)spiro[bicyclo[2.2.1]heptane-7,1′-cyclopropane]-3-carboxylate]	1370	0.74			
O=C(O)C1C(C(=O)Nc2cccc(C(F)(F)F)c2)C2CCC1C21CC1 (racemic) [Compound 37, (+/−)-(1R,2S,3R,4S)-3-β3-(Trifluoromethyl)phenyl)carbamoyl)spiro[bicyclo-[2.2.1]heptane-7,1′-cyclopropane]-2-carboxylic Acid]	978	0.86			

Further molecules by falling EC50 [1], results first:

EC50 [1] [nM]	FPRL1 (rel. eff.) [1]	EC50 [2, 3] [nM]	EC50 [2, 4] [nM]	FPR1 (rel. eff.) ([2]; calcium, FLIPR Tetra)	Molecule
498	1.00				O=C(O)[C@@H]1[C@H](C(=O)Nc2ccc(Cl)c(Cl)c2)[C@@H]2CC[C@H]1C21CC1 (racemic) [Compound 38, (+/−)-(1R,2S,3R,4S)-3-((3,4-Dichlorophenyl)carbamoyl)spiro[bicyclo[2.2.1]heptane-7,1′-cyclopropane]-2-carboxylic Acid]
403	0.72				COC(=O)C1C(C(=O)Nc2ccc(I)cc2)C2C=CC1C21CC1 (racemic) [Compound 16, Methyl(+/−)-(1S,4R,5S,6R)-6-(4-Iodophenylcarbamoyl)spiro[bicyclo[2.2.1]hept[2]ene-7,1′-cyclopropane]-5-carboxylate]
97	0.90	> 10000			CSc1ccc(NC(=O)C2C(C(N)=O)C3C=CC2C32CC2)cc1 (racemic) [Compound 49, (+/−)-(1R,4S,5R,6S)—N-5-(4-(Methylthio)phenyl)spiro[bicyclo[2.2.1]hept[2]ene-7,1′-cyclopropane]-5,6-dicarboxamide]
43	0.86				O=C(O)[C@@H]1[C@H](C(=O)Nc2ccc(Cl)cc2)[C@@H]2CC[C@H]1C21CC1 (racemic) [Compound 11, (+/−)-(1R,2S,3R,4S)-3-(4-Chlorophenylcarbamoyl)spiro[bicyclo[2.2.1]heptane-7,1′-cyclopropane]-2-carboxylic Acid]
17.2	0.9	> 10000			CSc1ccc(NC(=O)[C@H]2[C@@H](C(N)=O)[C@H]3CC[C@@H]2C3(C)C)cc1 (racemic) [Compound 64, (+/−)-(1S,2R,3S,4R)-7,7-Dimethyl-N^2-(4-(methylthio)phenyl)bicyclo[2.2.1]heptane-2,3-dicarboxamide]
7	0.96		1100	0.23	CSc1ccc(NC(=O)[C@H]2[C@@H](C(=O)O)[C@H]3CC[C@@H]2C32CC2)cc1 (racemic) [Compound 42, (+/−)-(1R,2S,3R,4S)-3-((4-(Methylthio)phenyl)carbamoyl)spiro[bicyclo-[2.2.1]heptane-7,1′-cyclopropane]-2-carboxylic Acid]
6.6	1.0	> 10000			CC(C)NC(=O)[C@@H]1[C@H](C(=O)Nc2ccc(Br)cc2)[C@@H]2CC[C@H]1C21CC1 (racemic) [Compound 79, (+/−)-(1S,2R,3S,4R)—N^2-(4-Bromophenyl)-N^3-isopropylspiro[bicyclo[2.2.1]heptane-7,1′-cyclopropane]-2,3-dicarboxamide]
